The test system of data set [1] is ERK5 autophosphorylation in HeLa cells. As to the kind of experiment: EGF-stimulated HeLa cell assay (ERK5 autophosphorylation, Western blot). As to conditions: Homo sapiens, average where more than one data point. In kind it is cell-based. As for the experimental part:
EGF-Stimulated HeLa Cell Assay
HeLa cells were serum starved overnight followed by treatment with ERK5 inhibitors for 1 hr. Cells were then stimulated with 100 ng/ml EGF for 10 or 15 min. The cells were harvested and lysed at 4° C. for 5-10 min in Laemmli buffer containing Halt protease and […] (Pierce). The lysates were boiled for 10 min at 100° C. Twenty microliters sample was run on 6% or 7.5% Tris-glycine gels and transferred to nitrocellulose. […] The IC50 was calculated from densitometry of top bands.
On the technique in general: Immunoblotting shows a protein as a band on a membrane.

Data set [2] concerns HA-ERK5-ΔP493 (MEK5D-activated, MEF2D-Gal4/Gal4-Luc reporter) in HEK293T cells. Nature of the data set: Truncated dual-luciferase reporter assay, HEK293T forward transfection. In kind it is cell-based. As to conditions: Homo sapiens, HEK-293T, average where more than one data point, read-out: Truncated ERK 5 Reporter Assay. As for the experimental part:
(§1) Truncated Dual-Luciferase Reporter Assay
(§2) HEK293T and HeLa Forward Transfection
Constitutively-active, EGFP-tagged MEK5 (EGFP-MEK5D; 0.5 μg/μl), an EGFP-tagged construct containing no MEK5D (EGFP-C3; 0.5 μg/μl), and HA-tagged ERK5 with C-terminal truncation (HA-ERK5-ΔP493; 0.51 μg/μl) were diluted separately in sterile distilled water. Plasmid DNA and Lipofectamine 2000 (Invitrogen) were separately diluted in Opti-MEM growth media (reduced serum medium, Invitrogen), and incubated at room temperature for 5 min. Plasmid DNA (Tube A) and Lipofectamine 2000 (Tube B) were then combined and incubated for 20 min at room temperature to complex. Cells were then transfected by addition of 16 μl of the respective transfection mixture: 3 wells with EGFP-C3-containing (control) and 21 wells with MEK5D-containing transfection mixture (final volume, 100 μl). Cells were subsequently incubated for 4 h at 37° prior to addition of potential ERK5-inhibitory compounds.
Addition of Compounds to ERK5-Transfected HEK293T or HeLa Cells
Potential ERK5-inhibitory compounds were prepared as a 2× solution by addition of 2 μl compound (or DMSO as control) to 1 ml standard culture medium. Compounds were tested in triplicate at a concentration range of 0.003 μM, 0.01 μM, 0.03 μM, 0.1 μM, 0.3 μM and 1 μM (or 0.03 μM, 0.1 μM, 0.3 μM, 1 μM, 3 μM and 10 μM for BIX02189) by addition of 100 μl 2× solution to 100 μl transfected cells (final DMSO, 0.1% v/v). Cells were incubated for 24 h at 37° C.
(§3) Cell Lysis and Luciferase Quantification
(§4) After 24 h incubation in the absence (control) or presence of potential inhibitor, the culture medium was aspirated and cells lysed in 20 μl 1× passive lysis buffer (Dual-Luciferase Reporter Assay System, Promega) for a minimum of 15 min with agitation. Lysates were further processed immediately or stored at −80° C. Cellular inhibition of ERK5 was quantified using the Dual-Luciferase Reporter Assay System (Promega). Luciferase assay buffer/Luciferase assay substrate and Stop and Glo assay buffer/Stop and Glo substrate were prepared according to the manufacturer's instructions. Luciferase reagent (50 μl/well) was added immediately before luminescence detection using a FLUOstar Omega plate reader (BMG Labtech). Stop and Glo reagent (50 μl/well) was subsequently added, and the Renilla luciferase signal (transfection efficiency control) quantified.
The ERK5-specific signalling activity was calculated by subtraction of the EGFP-C3 luciferase signal from the EGFP-MEK5D-induced luminescence. Luminescence in the absence of potential ERK5 inhibitor (DMSO control) was taken as 100% ERK5 activity. […] Unless stated otherwise, data are mean±standard deviation of three independent experiments.

The target of another data set is T1, ERK5 (Homo sapiens, UniProt Q13164).
T1 construct: made in house
As to the kind of experiment: ERK5 IMAP assay (fluorescence polarisation). It counts as biochemical. Background: Polarisation of emitted light reports the rotation of a fluorescent probe.

Data set [3] deals with HA-ERK5-ΔP493 (MEK5D-activated, MEF2D-Gal4/Gal4-Luc reporter) in HeLa cells. Nature of the data set: Truncated dual-luciferase reporter assay, HeLa forward transfection. It counts as cell-based. As to conditions: Homo sapiens, value with spread. How it is done: as §1, §2
HEK293T or HeLa cells were seeded in 96-well luminescence (white) plates (1.68×10^4/well in 84 μl standard culture medium) and incubated overnight at 37° C. in a humidified atmosphere of 5% CO2 in air. Plasmid DNA mastermix containing MEF2D-Gal4 (0.25 μg/μl), Gal4-Luc (1.25 μg/μl) and Renilla luciferase (0.1 μg/μl) was prepared in sterile distilled water. Constitutively-active, EGFP-tagged MEK5 (EGFP-MEK5D; 0.5 μg/μl), an EGFP-tagged construct containing no MEK5D (EGFP-C3; 0.5 μg/μl), and HA-tagged ERK5 with C-terminal truncation (HA-ERK5-ΔP493; 0.51 μg/μl) were diluted separately in sterile distilled water. Plasmid DNA and Lipofectamine 2000 (Invitrogen) were separately diluted in Opti-MEM growth media (reduced serum medium, Invitrogen), and incubated at room temperature for 5 min. Plasmid DNA (Tube A) and Lipofectamine 2000 (Tube B) were then combined and incubated for 20 min at room temperature to complex. […]
as §3
as §4, with “Lysates were further processed immediately or stored at −80° C.” left out, “Luciferase assay buffer/Luciferase assay substrate and Stop and Glo assay buffer/Stop and Glo substrate were prepared according to the manufacturer's instructions.” left out
The ERK5-specific signalling activity was calculated by subtraction of the EGFP-C3 luciferase signal from the EGFP-MEK5D-induced luminescence. Luminescence in the absence of potential ERK5 inhibitor (DMSO control) was taken as 100% ERK5 activity. […]
(Reporter assays use an easily measured gene product as a stand-in for the process of interest.)

The test system of data set [4] is tumour cell lines and endothelial cells. Particulars: cited from earlier work.
Data set [5] deals with bFGF-induced angiogenesis. Particulars: matrigel plug; cited from earlier work.
The conditions of data set [6]: cited from earlier work.
A further data set relates to human and murine tumour. Particulars: cited from earlier work.
The mark [7] stands for this setting: value ± spread, second part of table, read-out: ERK5 IMAP IC50.

Where two headings read alike, the source gives them in different places.

T1 sequence (Q13164 whole entry): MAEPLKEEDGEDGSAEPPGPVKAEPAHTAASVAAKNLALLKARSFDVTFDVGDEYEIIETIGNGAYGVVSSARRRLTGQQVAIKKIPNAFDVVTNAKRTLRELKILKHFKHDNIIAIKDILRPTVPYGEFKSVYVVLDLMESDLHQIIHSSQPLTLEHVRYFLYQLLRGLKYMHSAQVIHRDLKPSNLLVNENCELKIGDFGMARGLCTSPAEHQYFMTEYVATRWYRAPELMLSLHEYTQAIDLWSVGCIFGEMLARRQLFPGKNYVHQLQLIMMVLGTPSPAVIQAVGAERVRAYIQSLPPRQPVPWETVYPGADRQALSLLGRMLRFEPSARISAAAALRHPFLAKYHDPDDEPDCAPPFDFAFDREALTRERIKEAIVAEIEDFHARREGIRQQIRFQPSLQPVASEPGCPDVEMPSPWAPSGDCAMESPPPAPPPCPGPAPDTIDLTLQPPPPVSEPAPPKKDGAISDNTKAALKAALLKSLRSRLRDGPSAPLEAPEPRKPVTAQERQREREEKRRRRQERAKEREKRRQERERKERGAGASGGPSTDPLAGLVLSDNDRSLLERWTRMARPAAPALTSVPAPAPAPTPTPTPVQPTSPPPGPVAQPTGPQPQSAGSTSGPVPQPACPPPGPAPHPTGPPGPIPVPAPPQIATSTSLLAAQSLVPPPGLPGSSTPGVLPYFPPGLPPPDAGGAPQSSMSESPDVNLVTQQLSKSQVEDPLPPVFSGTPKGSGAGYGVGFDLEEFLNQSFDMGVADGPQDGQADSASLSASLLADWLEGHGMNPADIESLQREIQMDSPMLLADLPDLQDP

Regarding `CCN(CC)CCNc1ncc(NC(=O)c2cc(C(=O)c3c(Cl)ccc(Cl)c3F)c[nH]2)cn1` [Example 100, 4-(3,6-Dichloro-2-fluorobenzoyl)-N-(2-((2-(diethylamino)ethyl)amino)pyrimidin-5-yl)-1H-pyrrole-2-carboxamide], the IC50 in data set [1] was found to be 490 nM; in data set [2] it was 151 nM; on ERK5 (average (e.g. geometric mean) where more than one data point, read-out: ERK5 IC50), 0.0193 µM.
Turning to `Cc1cccc(F)c1C(=O)c1c[nH]c(C(=O)Nc2cnn(C)c2)c1` [Example 286, 4-(2-Fluoro-6-methylbenzoyl)-N-(1-methyl-1H-pyrazol-4-yl)-1H-pyrrole-2-carboxamide], the IC50 was determined as 2480 nM in data set [3] and 7.07 ± 0.02 µM on ERK5 (setting [7]).
Regarding `Cn1cc(NC(=O)c2cc(C(=O)c3c(F)cccc3F)c[nH]2)cn1` [Example 285, 4-(2,6-Difluorobenzoyl)-N-(1-methyl-1H-pyrazol-4-yl)-1H-pyrrole-2-carboxamide], the IC50 in data set [3] came out at 671 nM; on ERK5 (setting [7]), 1.56 ± 0.05 µM.
Turning to `CCOc1cc(N2CCC(O)CC2)ccc1Nc1ncc2c(n1)N(C)c1ccccc1C(=O)N2C` [XMD8-92], the anti-proliferative activity result in data set [4] was “modest anti-proliferative activity”. Also, the blood vessel formation entry in data set [5] was “completely abrogated blood vessel formation”. Also, the tolerability in mice entry in data set [6] is reported as “well tolerated”. Moreover, in the data set with human and murine tumour (human and murine tumours in mice), the tumour growth entry is “pronounced retardation of both human and murine tumour growth”. Besides, the “inhibition of tumour ERK5” value with human and murine tumour (mice) is on record as “inhibited tumour ERK5”.
As for `Cn1cc(NC(=O)c2cc(C(=O)c3ccccc3F)c[nH]2)cn1` [Example 287, 4-(2-Fluorobenzoyl)-N-(1-methyl-1H-pyrazol-4-yl)-1H-pyrrole-2-carboxamide], the IC50 in data set [3] worked out at 3200 nM; at ERK5 (setting [7]), 7.55 ± 0.3 µM.
